Consider 2 compounds from patent publication US20250262146A1, “PLATFORM NANOPARTICLE TECHNOLOGY FOR SUSTAINED DELIVERY OF HYDROPHOBIC DRUGS” (UNIVERSITY OF MARYLAND, BALTIMORE, priority 2022, published 2025).

Each structure is given as a SMILES string.

For data set [1], the system named is 9 human leukemia cell lines. The note with it: 9 human leukemia cell lines in vitro; cited from earlier work.
Data set [2] in a line: Water solubility of ART631, alone and loaded into nanogels. It counts as physicochemical. The conditions noted are these: drug without nanogel.
In data set [3] the test system is MOLM14 human acute myeloid cells. Kind of data set: MTT cytotoxicity assay, MOLM14. Format: cell-based. The note with it: concentration 0.0025 mg/mL. On the procedure: The MOLM14 AML cell line, MV4;11, and THP1 cell lines were cultured and incubated in RPMI 1640 medium with 10% FBS at 37° C. and air containing 5% CO2. When the cells reached about 70% confluency, the cells were split with a density of 40,000 cells per cm^2. Adult Retinal Pigment Epithelial (ARPE-19) cells were grown in Dulbecco's Modified Eagle Medium (DMEM)/F12 (1:1) with 10% FBS and 1% Penicillin-Streptomycin (Pen-Strep). Dental Pulp Stem Cells (DPSCs) were grown in DMEM with glutamine and 10% FBS and 1% Pen-Strep. A Hemolysis assay kit was purchased from Creative Biolabs™.
The cytotoxicity of plain nanogels, plain SDS nanogels and 2, 5, 10 and 15 wt % ART631-loaded NanoART631 were assessed using thiazolyl blue tetrazolium bromide (MTT) and WST1 assays against MOLM14 human acute myeloid cells, MV4;11 cells, THP1 cells, normal adult retinal pigment epithelium-19 (ARPE-19) cells, and dental pulp stem cells (DPSCs). […] Pure ART631, ART838, 5 and 10 wt % NanoART631 IC50 were determined by adding 5e^−6, 5e^−5, 5e^−4, 6.25e^−4, 0.001, 0.0025, 0.005, 0.01, 0.05, 0.1, 0.2, 0.5, 1, 5, 10 mg·mL-1 of the formulation to MOLM14 AML cells. […] Absorbance was read at 570 nm using a BioTek™ cytation 5 microplate reader for all experiments after removing all the wells contents and then dissolving the formazan crystals in 150 μL of DMSO. […]

Consider `C=CCO/N=C(/C[C@H]1O[C@@H]2O[C@@]3(C)CC[C@H]4[C@H](C)CC[C@@H]([C@H]1C)[C@@]24OO3)[C@H]1O[C@@H]2O[C@@]3(C)CC[C@H]4[C@H](C)CC[C@@H]([C@H]1C)[C@@]24OO3` [ART631], for which the IC50 (in general, the midpoint of a concentration-inhibition curve) in data set [1] is < 45 nM. For the same compound, the solubility (in general, the concentration that dissolves in the medium under given conditions) in data set [2] is < 10 µg/mL. The compound also came in with an MOLM14 cells killed in data set [3] of 67%.

Compound `C[C@@H]1CCC2[C@@H](C)[C@@H](CC(COP(=O)(Oc3ccccc3)Oc3ccccc3)C[C@H]3O[C@@H]4O[C@@]5(C)CCC6[C@H](C)CCC([C@H]3C)[C@]64OO5)O[C@@H]3O[C@@]4(C)CCC1[C@@]23OO4` (stereo partly shown) [ART838] came in with an MOLM14 cells killed in data set [3] of 64%.
